Values after ≈ are worked out from the molar mass of the structure shown.
How the values were obtained:
Assay type in all cases: cell-based
A. anitratus ATCC 19606 = experiment: Broth microdilution MIC, ATCC strains; conditions: Acinetobacter calcoaceticus, ATCC19606; A. anitratus ATCC 19606; read-out: MIC (growth inhibition, microdilution method)
Source text: (§1) All clinical isolates tested were from The North American Urinary Tract Infection Collaborative Alliance (NAUTICA) which is a UTI surveillance study involving 40 medical centres (30 from the US and 10 from Canada). Each centre submitted up to 50 consecutive outpatient midstream urine isolates. All isolates were deemed significant urinary tract pathogens by individual laboratory criteria and identified to the species level by each laboratory's existing protocol. Isolates were transported to the coordinating laboratory (Health Sciences Centre, Winnipeg, Canada) on charcoal swabs. Only one isolate per patient was accepted. Upon receipt, isolates were cultured by the coordinating laboratory, stocked in skim milk, and stored at −80° C. awaiting reference antibiotic susceptibility testing. Elementary demographic information was also compiled for each isolate. Isolates were selected randomly from the above pool to represent 18 different species of Enterobacteriaceae and non-Enterobacteriaceae. An average of 5 strains of each species were tested for a total of 93 organisms. In addition, 23 reference (ATCC) [both gram negative and gram positive] strains were tested.
(§2) Susceptibilities to the compounds were determined using the National Committee for Clinical Laboratory Standards (NCCLS) M7-A6 broth microdilution method. […] DMSO controls were incorporated into the panel to mimic the quantity of DMSO used in dissolving some of the compounds at the higher concentrations. Each final panel well volume was 100 μl with a bacterial inoculum of 5×10^5 colony forming units (CFU)/ml. Panels were read following 16 to 20 hours of incubation at 35° C. in ambient air. The minimum inhibitory concentration (MIC) was defined as the lowest concentration of antimicrobial inhibiting visible growth. Quality control (QC) was performed using four ATCC QC organisms that were run with every batch set up to insure reproducibility.

E. cloacae ATCC 23355 = experiment: Broth microdilution MIC, ATCC strains; conditions: Enterobacter cloacae, ATCC23355; E. cloacae ATCC 23355; read-out: MIC (growth inhibition, microdilution method)
Source text: as §1, §2

E. faecium ATCC 35667 = experiment: Broth microdilution MIC, ATCC strains; conditions: Enterococcus faecium, ATCC35667, read-out: MIC (growth inhibition, microdilution method)
Source text: as §1, §2

MRSA ATCC 33591 = experiment: Broth microdilution MIC, ATCC strains; conditions: Staphylococcus aureus; MRSA ATCC 33591; read-out: MIC (growth inhibition, microdilution method)
Source text: as §1, §2

P. mirabilis ATCC 29245 = experiment: Broth microdilution MIC, ATCC strains; conditions: Proteus mirabilis, ATCC29245; P. mirabilis ATCC 29245; read-out: MIC (growth inhibition, microdilution method)
Source text: as §1, §2

[1] = test system: Ps. aeruginosa ATCC 27853; experiment: Broth microdilution MIC, ATCC strains; conditions: Pseudomonas aeruginosa, ATCC27853; Ps. aeruginosa ATCC 27853; read-out: MIC (growth inhibition, microdilution method)
Source text: as §1, §2

[2] = test system: S. epidermidis ATCC 14990; experiment: Broth microdilution MIC, ATCC strains; conditions: Staphylococcus epidermidis, ATCC14990; S. epidermidis ATCC 14990; read-out: MIC (growth inhibition, microdilution method)
Source text: as §1, §2

[3] = test system: S. liquefaciens ATCC 27592; experiment: Broth microdilution MIC, ATCC strains; conditions: S. liquefaciens ATCC 27592; read-out: MIC (growth inhibition, microdilution method)
Source text: as §1, §2

[4] = test system: S. maltophilia ATCC 13637; experiment: Broth microdilution MIC, ATCC strains; conditions: Stenotrophomonas maltophilia, ATCC13637; S. maltophilia ATCC 13637; read-out: MIC (growth inhibition, microdilution method)
Source text: as §1, §2

[5] = test system: S. saprophyticus ATCC 15305; experiment: Broth microdilution MIC, ATCC strains; conditions: Staphylococcus saprophyticus, ATCC15305; S. saprophyticus ATCC 15305; read-out: MIC (growth inhibition, microdilution method)
Source text: as §1, §2

S. warneri ATCC 27836 = experiment: Broth microdilution MIC, ATCC strains; conditions: Staphylococcus warneri, ATCC27836; S. warneri ATCC 27836; read-out: MIC (growth inhibition, microdilution method)
Source text: as §1, §2

P. rettgeri CAP = experiment: Broth microdilution MIC, reference strains; conditions: Providencia rettgeri; P. rettgeri (CAP in Table 1); read-out: MIC (growth inhibition, microdilution method)
Source text: as §1, §2

[6] = test system: A. baumanii clinical isolates; experiment: Broth microdilution MIC, clinical isolate strains (NAUTICA); conditions: unit assumed
Source text: as §1, §2

[7] = test system: B. cepacia clinical isolates; experiment: as above; conditions: unit assumed
Source text: as §1, §2

[8] = test system: C. amalonaticus clinical isolates; experiment: as above; conditions: unit assumed
Source text: as §1, §2

[9] = test system: C. freundii clinical isolates; experiment: as above; conditions: in µg/mL (unit assumed)
Source text: as §1, §2

[10] = test system: C. koseril clinical isolates; experiment: as above; conditions: unit assumed
Source text: as §1, §2

[11] = test system: E. aerogenes clinical isolates; experiment: as above; conditions: unit assumed
Source text: as §1, §2

[12] = test system: E. cloacae clinical isolates; experiment: as above; conditions: unit assumed
Source text: as §1, §2

[13] = test system: E. coli clinical isolates; experiment: as above; conditions: unit assumed
Source text: as §1, §2

[14] = test system: K. oxytoca clinical isolates; experiment: as above; conditions: unit assumed
Source text: as §1, §2

[15] = test system: K. pneumoniae clinical isolates; experiment: as above; conditions: unit assumed
Source text: as §1, §2

[16] = test system: M. morganii clinical isolates; experiment: as above; conditions: unit assumed
Source text: as §1, §2

[17] = test system: P. mirabilis clinical isolates; experiment: as above; conditions: unit assumed
Source text: as §1, §2

[18] = test system: P. retgerri clinical isolates; experiment: as above; conditions: unit assumed
Source text: as §1, §2

[19] = test system: P. stuartii clinical isolates; experiment: as above; conditions: unit assumed
Source text: as §1, §2

[20] = test system: P. vulgaris clinical isolates; experiment: as above; conditions: unit assumed
Source text: as §1, §2

[21] = test system: S. liquifaciens clinical isolates; experiment: as above; conditions: unit assumed
Source text: as §1, §2

[22] = test system: S. maltophilia clinical isolates; experiment: as above; conditions: unit assumed
Source text: as §1, §2

[23] = test system: S. marcescens clinical isolates; experiment: as above; conditions: unit assumed
Source text: as §1, §2

[24] = clinical isolates, one table line per isolate
[25] = Table 4B, each table row is one clinical isolate

Row | Structure (SMILES) | MIC (A. anitratus ATCC 19606) | MIC (E. cloacae ATCC 23355) | MIC (E. faecium ATCC 35667) | MIC (MRSA ATCC 33591) | MIC (P. mirabilis ATCC 29245) | MIC [1] | MIC [2] | MIC [3] | MIC [4] | MIC [5] | MIC (S. warneri ATCC 27836) | MIC (P. rettgeri CAP) | MIC, A. BAUMANII [6, 25] | MIC, B. CEPACIA [7, 25] | MIC, C. AMALONATICUS [8, 25] | MIC, C. FREUNDII [9, 25] | MIC, C. KOSERI [10, 25] | MIC, E. AEROGENES [11, 25] | MIC, E. CLOACAE [12, 25] | MIC, E. COLI [13, 25] | further results
1 | O=C(O)c1cc(-c2nnn[nH]2)c(-c2ccc(F)cc2)s1 [DNM-121, 5-(4-Fluoro-phenyl)-4-(1H-tetrazol-5-yl)-thiophene-2-carboxylic acid] | 64 µg/mL (≈ 220 µM) | 64 µg/mL (≈ 220 µM) | 8 µg/mL (≈ 27.6 µM) | 64 µg/mL (≈ 220 µM) | 64 µg/mL (≈ 220 µM) | 64 µg/mL (≈ 220 µM) | 64 µg/mL (≈ 220 µM) | 64 µg/mL (≈ 220 µM) | 64 µg/mL (≈ 220 µM) | 64 µg/mL (≈ 220 µM) | 64 µg/mL (≈ 220 µM) | 64 µg/mL (≈ 220 µM) |  |  |  |  |  |  |  |  | MIC, A. BAUMANII [6, 24]: 64 µg/mL (≈ 220 µM); MIC, B. CEPACIA [7, 24]: 64 µg/mL (≈ 220 µM); MIC, C. AMALONATICUS [8, 24]: 64 µg/mL (≈ 220 µM); MIC, C. FREUNDII [9, 24]: 64; MIC, C. KOSERI [10, 24]: 64 µg/mL (≈ 220 µM); MIC, E. AEROGENES [11, 24]: 64 µg/mL (≈ 220 µM); MIC, E. CLOACAE [12, 24]: 64 µg/mL (≈ 220 µM); MIC, E. COLI [13, 24]: 64 µg/mL (≈ 220 µM); MIC, K. OXYTOCA [14, 24]: 64 µg/mL (≈ 220 µM); MIC, K. PNEUMONIAE [15, 24]: 64 µg/mL (≈ 220 µM); MIC, M. MORGANII [16, 24]: 64 µg/mL (≈ 220 µM); MIC, P. MIRABILIS [17, 24]: 64 µg/mL (≈ 220 µM); MIC, P. RETTGERI [18, 24]: 64 µg/mL (≈ 220 µM); MIC, P. STUARTII [19, 24]: 64 µg/mL (≈ 220 µM); MIC, P. VULGARIS [20, 24]: 64 µg/mL (≈ 220 µM); MIC, S. LIQUEFACIENS [21, 24]: 64 µg/mL (≈ 220 µM); MIC, S. MALTOPHILIA [22, 24]: 64 µg/mL (≈ 220 µM); MIC, S. MARCESCENS [23, 24]: 64 µg/mL (≈ 220 µM)
2 | CCOC(=O)c1cc(-c2nnn(C)n2)c(-c2ccc(F)cc2)s1 [DNM-125, ethyl 5-(4-fluorophenyl)-4-(2-methyl-2H-tetrazol-5-yl)thiophene-2-carboxylate] | > 16 µg/mL | > 16 µg/mL | > 16 µg/mL | > 16 µg/mL | > 16 µg/mL | > 16 µg/mL | > 16 µg/mL | > 16 µg/mL | > 16 µg/mL | > 16 µg/mL | > 16 µg/mL | > 16 µg/mL | > 16 µg/mL | > 16 µg/mL | > 16 µg/mL | >16 | > 16 µg/mL | > 16 µg/mL | > 16 µg/mL | > 16 µg/mL | MIC, K. OXYTOCA [14, 25]: > 16 µg/mL; MIC, K. PNEUMONIAE [15, 25]: > 16 µg/mL; MIC, M. MORGANII [16, 25]: > 16 µg/mL; MIC, P. MIRABILIS [17, 25]: > 16 µg/mL; MIC, P. RETTGERI [18, 25]: > 16 µg/mL; MIC, P. STUARTII [19, 25]: > 16 µg/mL; MIC, P. VULGARIS [20, 25]: > 16 µg/mL; MIC, S. LIQUEFACIENS [21, 25]: > 16 µg/mL; MIC, S. MALTOPHILIA [22, 25]: > 16 µg/mL; MIC, S. MARCESCENS [23, 25]: > 16 µg/mL
3 | Fc1ccc(-c2cc(-c3nnn[nH]3)c(-c3ccc(F)cc3)s2)cc1 [DNM-131, 5-(2,5-Bis(4-fluorophenyl)thiophen-3-yl)-1H-tetrazole] | > 32 µg/mL | > 32 µg/mL | > 32 µg/mL | > 32 µg/mL | > 32 µg/mL | > 32 µg/mL | > 32 µg/mL | > 32 µg/mL | > 32 µg/mL | > 32 µg/mL | > 32 µg/mL | > 32 µg/mL | > 32 µg/mL | > 32 µg/mL | > 32 µg/mL | >32 | > 32 µg/mL | > 32 µg/mL | > 32 µg/mL | > 32 µg/mL | MIC, K. OXYTOCA [14, 25]: > 32 µg/mL; MIC, K. PNEUMONIAE [15, 25]: > 32 µg/mL; MIC, M. MORGANII [16, 25]: > 32 µg/mL; MIC, P. MIRABILIS [17, 25]: > 32 µg/mL; MIC, P. RETTGERI [18, 25]: > 32 µg/mL; MIC, P. STUARTII [19, 25]: > 32 µg/mL; MIC, P. VULGARIS [20, 25]: > 32 µg/mL; MIC, S. LIQUEFACIENS [21, 25]: > 32 µg/mL; MIC, S. MALTOPHILIA [22, 25]: > 32 µg/mL; MIC, S. MARCESCENS [23, 25]: > 32 µg/mL

— patent US8835476B2, “Synthesis of novel antimicrobials” (priority 2005, dated 2014)
